Where “and” joins values, the source holds several entries; their conditions need not be identical. Identical values can stand only once. Inconclusive results and toxic doses are left out. The calls were made as follows: active = survival T/C of 150% or more; inactive = T/C below 125% in these data. Square brackets hold non-standard residues; d marks the D form. Peptide text beside a SMILES is read from it. ξ: configuration not given here. ξA = CC(N)C(=O)O
Tested on: P388 leukemia ip, CD2F1 mice, survival T/C
Assay: NCI In Vivo Anticancer Drug Screen. Data for tumor model P388 Leukemia (intraperitoneal) in CD2F1 (CDF1) mice
Settings: endpoint: median survival time, higher = longer survival
Outline: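 Mice carrying the transplanted tumor received test compound or vehicle. Survival was recorded in each group, and the value is the treated-group measurement divided by that of the vehicle-treated control group.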

[1] = dose: 7.5 mg/kg/injection, schedule: Q01DX005 (ip), vehicle: Klucel (hydroxypropylcellulose) (HPC)
[2] = dose: 60.0 mg/kg/injection, schedule: Q01DX005 (ip), vehicle: Klucel (hydroxypropylcellulose) (HPC)
[3] = dose: 120.0 mg/kg/injection, schedule: Q01DX005 (ip), vehicle: Klucel (hydroxypropylcellulose) (HPC)
[4] = dose: 240.0 mg/kg/injection, schedule: Q01DX005 (ip), vehicle: Klucel (hydroxypropylcellulose) (HPC)
[5] = dose: 50.0 mg/kg/injection, schedule: Q01DX005 (ip), vehicle: saline
[6] = dose: 100.0 mg/kg/injection, schedule: Q01DX005 (ip), vehicle: saline
[7] = dose: 200.0 mg/kg/injection, schedule: Q01DX005 (ip), vehicle: saline
[8] = dose: 50.0 mg/kg/injection, schedule: Q01DX009 (ip), vehicle: Klucel (hydroxypropylcellulose) (HPC)
[9] = dose: 100.0 mg/kg/injection, schedule: Q01DX009 (ip), vehicle: Klucel (hydroxypropylcellulose) (HPC)
[10] = dose: 200.0 mg/kg/injection, schedule: Q01DX009 (ip), vehicle: Klucel (hydroxypropylcellulose) (HPC)
[11] = dose: 12.5 mg/kg/injection, schedule: Q01DX001 (ip), vehicle: Klucel (hydroxypropylcellulose) (HPC)
[12] = dose: 25.0 mg/kg/injection, schedule: Q01DX001 (ip), vehicle: Klucel (hydroxypropylcellulose) (HPC)
[13] = dose: 50.0 mg/kg/injection, schedule: Q01DX005 (ip), vehicle: saline with Tween-80
[14] = dose: 100.0 mg/kg/injection, schedule: Q01DX005 (ip), vehicle: saline with Tween-80
[15] = dose: 200.0 mg/kg/injection, schedule: Q01DX005 (ip), vehicle: saline with Tween-80
[16] = dose: 25.0 mg/kg/injection, schedule: Q01DX005 (ip), vehicle: saline with Tween-80
[17] = dose: 60.0 mg/kg/injection, schedule: Q01DX005 (ip), vehicle: saline with Tween-80
[18] = dose: 120.0 mg/kg/injection, schedule: Q01DX005 (ip), vehicle: saline with Tween-80
[19] = dose: 240.0 mg/kg/injection, schedule: Q01DX005 (ip), vehicle: saline with Tween-80

Measured: T/C

CC(/C=C/c1cccc(C)c1)=N\NC(N)=S
inactive: dose: 3.75 mg/kg/injection, schedule: Q01DX005 (ip), vehicle: Klucel (hydroxypropylcellulose) (HPC) 106 % of control | [1] 105 % of control | dose: 30.0 mg/kg/injection, schedule: Q01DX005 (ip), vehicle: Klucel (hydroxypropylcellulose) (HPC) 122 % of control

COc1cc2c3c(c1OC)-c1[nH]c4ccccc4c1C1CCCN(CC2)C31 (configuration not stated)
inactive: [2] 95 % of control | [3] 96 % of control | [4] 98 % of control

CNC(=O)C1CCCN1C(=O)C(Cl)Cl (configuration not stated)
inactive: dose: 50.0 mg/kg/injection, schedule: Q01DX009 (ip), vehicle: saline 96 % of control | dose: 100.0 mg/kg/injection, schedule: Q01DX009 (ip), vehicle: saline 93 % of control and 96 % of control | dose: 200.0 mg/kg/injection, schedule: Q01DX009 (ip), vehicle: saline 86 % of control and 92 % of control

NC1CC2(CCC1=O)c1ccccc1-c1ccccc12 (configuration not stated)
inactive: dose: 100.0 mg/kg/injection, schedule: Q01DX001 (ip), vehicle: saline with Tween-80 105 % of control | dose: 400.0 mg/kg/injection, schedule: Q01DX001 (ip), vehicle: saline with Tween-80 102 % of control

CN1C(=O)c2ccccc2C2(C1=O)C(C#N)=C(N)Oc1c2c2ccccc2c(=O)n1C (configuration not stated)
inactive: [2] 99 % of control | [3] 95 % of control | [4] 88 % of control

COc1cccc2c1C(=O)c1c(O)c3c(c(O)c1C2=O)C[C@@](O)(C(C)=O)CC3OC1CC(N/C(C)=C/C(=O)c2ccccc2)C(O)C(C)O1 (some centres not stated)
inactive: dose: 6.25 mg/kg/injection, schedule: Q04DX003 (ip), vehicle: saline with Tween-80 105 % of control | dose: 12.5 mg/kg/injection, schedule: Q04DX003 (ip), vehicle: saline with Tween-80 104 % of control | dose: 25.0 mg/kg/injection, schedule: Q04DX003 (ip), vehicle: saline with Tween-80 105 % of control and 107 % of control | dose: 50.0 mg/kg/injection, schedule: Q04DX003 (ip), vehicle: saline with Tween-80 101 % of control and 111 % of control

CN(C)c1nc(N(C)C)n2nc(-c3ccccc3[N+](=O)[O-])nc2n1
inactive: dose: 100.0 mg/kg/injection, schedule: Q04DX003 (ip), vehicle: saline with Tween-80 104 % of control | dose: 200.0 mg/kg/injection, schedule: Q04DX003 (ip), vehicle: saline with Tween-80 96 % of control | dose: 400.0 mg/kg/injection, schedule: Q04DX003 (ip), vehicle: saline with Tween-80 95 % of control

OCCN(Cc1ccccn1)Cc1ccccn1
inactive: dose: 7.5 mg/kg/injection, schedule: Q01DX005 (ip), vehicle: saline 99 % of control | dose: 15.0 mg/kg/injection, schedule: Q01DX005 (ip), vehicle: saline 106 % of control

COc1cc2c(c3c1c(=O)c1ccccc1n3C)C=C([N+](=O)[O-])C(C)(C)O2
inactive: dose: 3.0 mg/kg/injection, schedule: Q01DX005 (ip), vehicle: saline + Tween-80 + alcohol 116 % of control | dose: 6.0 mg/kg/injection, schedule: Q01DX005 (ip), vehicle: saline + Tween-80 + alcohol 116 % of control | dose: 12.0 mg/kg/injection, schedule: Q01DX005 (ip), vehicle: saline + Tween-80 + alcohol 108 % of control

CC(NC(=O)CNC(=O)CNC(=O)CNC(=O)CN)C(=O)O (configuration not stated) (H-GGGG[ξA]-OH)
inactive: [5] 100 % of control | [6] 103 % of control | [7] 101 % of control

CC(CC(N)C(=O)O)C(=O)O (configuration not stated)
inactive: [5] 103 % of control | [8] 103 % of control | [6] 98 % of control | [9] 102 % of control | [7] 100 % of control | [10] 103 % of control | dose: 400.0 mg/kg/injection, schedule: Q01DX009 (ip), vehicle: Klucel (hydroxypropylcellulose) (HPC) 103 % of control

CC(C)Cn1c(Cl)c(/C=N\Nc2ccc([N+](=O)[O-])cc2)c2ccccc21
inactive: dose: 12.5 mg/kg/injection, schedule: Q01DX001 (ip), vehicle: saline 94 % of control | dose: 25.0 mg/kg/injection, schedule: Q01DX001 (ip), vehicle: saline 88 % of control | dose: 50.0 mg/kg/injection, schedule: Q01DX001 (ip), vehicle: saline 96 % of control

CN(C)c1ccc(/C=N/NC(=O)c2ccccc2NC(=O)c2ccccc2Cl)cc1
inactive: [1] 86 % of control | dose: 15.0 mg/kg/injection, schedule: Q01DX005 (ip), vehicle: Klucel (hydroxypropylcellulose) (HPC) 86 % of control

CCN(CC)C(=S)SS(C)(=O)=O
inactive: dose: 25.0 mg/kg/injection, schedule: Q04DX003 (ip), vehicle: Klucel (hydroxypropylcellulose) (HPC) 99 % of control | dose: 50.0 mg/kg/injection, schedule: Q04DX003 (ip), vehicle: Klucel (hydroxypropylcellulose) (HPC) 107 % of control | dose: 100.0 mg/kg/injection, schedule: Q04DX003 (ip), vehicle: Klucel (hydroxypropylcellulose) (HPC) 107 % of control

Cc1ccc2snnc2c1
inactive: dose: 1.56 mg/kg/injection, schedule: Q01DX009 (ip), vehicle: Klucel (hydroxypropylcellulose) (HPC) 98 % of control | dose: 3.12 mg/kg/injection, schedule: Q01DX009 (ip), vehicle: Klucel (hydroxypropylcellulose) (HPC) 99 % of control | dose: 6.25 mg/kg/injection, schedule: Q01DX009 (ip), vehicle: Klucel (hydroxypropylcellulose) (HPC) 98 % of control and 95 % of control | [11] 100 % of control | [12] 95 % of control | dose: 50.0 mg/kg/injection, schedule: Q01DX001 (ip), vehicle: Klucel (hydroxypropylcellulose) (HPC) 99 % of control

CCCOc1ccc(C#N)cc1
inactive: [8] 102 % of control | [9] 108 % of control | [10] 99 % of control

OCC(O)C1OC(c2ccco2)OC(CO)C1O (configuration not stated)
inactive: [13] 102 % of control | [14] 105 % of control | [15] 105 % of control

CCN(CC)CC.[CH-]1CCCCC1.[CH-]1CCCCC1.[CH-]1CCCCC1.[Cl-].[I-].[Sn+4]
inactive: dose: 1.5 mg/kg/injection, schedule: Q01DX005 (ip), vehicle: Klucel (hydroxypropylcellulose) (HPC) 96 % of control | dose: 3.0 mg/kg/injection, schedule: Q01DX005 (ip), vehicle: Klucel (hydroxypropylcellulose) (HPC) 98 % of control | dose: 6.0 mg/kg/injection, schedule: Q01DX005 (ip), vehicle: Klucel (hydroxypropylcellulose) (HPC) 100 % of control and 93 % of control

CCCCc1ccc(C)c(O)c1
inactive: dose: 50.0 mg/kg/injection, schedule: Q01DX009 (ip), vehicle: saline with Tween-80 110 % of control | dose: 100.0 mg/kg/injection, schedule: Q01DX009 (ip), vehicle: saline with Tween-80 98 % of control

O=C(Oc1ccccc1[N+](=O)[O-])C1CCCN1C(=O)OCc1ccccc1 (configuration not stated)
inactive: [16] 104 % of control | [13] 109 % of control | [14] 102 % of control | [15] 99 % of control

Cc1cccc(/C=N/Nc2cc(C)c3ccccc3n2)n1
inactive: dose: 12.5 mg/kg/injection, schedule: Q01DX005 (ip), vehicle: saline with Tween-80 100 % of control | [16] 93 % of control | [13] 101 % of control and 104 % of control

O=C(NC(=O)c1cc2cc(Cl)cc(Cl)c2oc1=O)Oc1ccccc1
inactive: [13] 89 % of control | [14] 91 % of control | [15] 98 % of control

Clc1ccc(-c2nc(-c3cc4cc(Cl)ccc4o3)cs2)cc1
inactive: [8] 100 % of control | [9] 100 % of control | [10] 104 % of control

Brc1ccc(-c2nc3sc(-c4ccc5c(c4)OCO5)nn3c2Br)cc1
inactive: [17] 100 % of control | [18] 100 % of control | [19] 93 % of control

C[Si](C)(C)CCCn1ccc(=O)[nH]c1=O
inactive: [17] 98 % of control | [18] 92 % of control | [19] 88 % of control

COC1/C=C\OC2(C)Oc3c(C)c(O)c4c(c3C2=O)C2=NC(C)(C)N(c3ccccc3)C2=C(NC(=O)/C(C)=C\C=C\C(C)C(O)C(C)C(O)C(C)C(OC(C)=O)C1C)C4=O (configuration not stated)
inactive: dose: 25.0 mg/kg/injection, schedule: Q01DX009 (ip), vehicle: Klucel (hydroxypropylcellulose) (HPC) 100 % of control | [8] 103 % of control | [9] 98 % of control | [10] 107 % of control

[CH3][Sn]1([CH3])[O]C(=O)C(=O)[O]1
inactive: dose: 6.25 mg/kg/injection, schedule: Q01DX001 (ip), vehicle: Klucel (hydroxypropylcellulose) (HPC) 105 % of control | [11] 102 % of control | [12] 101 % of control
